Measured values: PMC8982324 (Journal of Extracellular Vesicles, 2022)
No end group written: not given here.

Legend:
HEK293T‐eGFP cells = type: cell-based
full length NMT1 enzyme = biological target: T1, full length NMT1 enzyme (Homo sapiens, UniProt P30419); experiment: NMT1 activity assay; conditions: synthesized octapeptide; average of three experiments
T1 sequence (P30419 1-496): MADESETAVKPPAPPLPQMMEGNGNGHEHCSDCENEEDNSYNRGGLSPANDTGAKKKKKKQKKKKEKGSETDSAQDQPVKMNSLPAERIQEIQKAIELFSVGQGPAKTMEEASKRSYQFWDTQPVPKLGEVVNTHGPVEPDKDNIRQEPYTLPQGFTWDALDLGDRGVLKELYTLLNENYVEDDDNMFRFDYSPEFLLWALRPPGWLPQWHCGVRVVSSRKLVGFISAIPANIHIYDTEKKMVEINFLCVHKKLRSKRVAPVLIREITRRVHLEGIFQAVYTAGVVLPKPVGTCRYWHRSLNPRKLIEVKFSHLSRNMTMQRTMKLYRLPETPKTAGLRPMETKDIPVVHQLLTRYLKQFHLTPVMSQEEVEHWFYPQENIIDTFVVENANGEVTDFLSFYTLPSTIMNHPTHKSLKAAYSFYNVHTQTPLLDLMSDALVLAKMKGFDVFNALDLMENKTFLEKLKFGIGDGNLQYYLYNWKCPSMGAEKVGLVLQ

CCN(CC)CCCC(C)Nc1ccnc2cc(Cl)ccc12 (centres unmarked) [chloroquine]
effect on Cas9 and VSV‐G protein levels in recipient cells (HEK293T‐eGFP cells): greatly increased

ASNKSKPK [SRC(G2A)]
substrate of NMT1 enzyme (full length NMT1 enzyme): not a substrate of NMT1
